The values that follow come from ChEMBL document CHEMBL1152890, “Synthesis and evaluation of a novel series of heterocyclic oleanolic acid derivatives with anti-osteoclast formation activity” (Eur J Med Chem, 2009).

Common to all, as to assay type: functional
Experiment [1] can be described thus: Antiosteoclast activity in ICR mouse osteoblast like cells co-cultured with bone marrow cells assessed as effect on 1-alpha,25(OH)2D3-induced TRAP-positive osteoclast like multinucleated cell formation at 2 uM after 6 days medium replaced every 2 days relative to control.
Experiment [2] can be described thus: Antiosteoclast activity in ICR mouse osteoblast like cells co-cultured with bone marrow cells assessed as effect on 1-alpha,25(OH)2D3-induced TRAP-positive osteoclast like multinucleated cell formation at 20 uM after 6 days medium replaced every 2 days relative to control.
A short description of experiment [3]: Antiosteoclast activity in ICR mouse osteoblast like cells co-cultured with bone marrow cells assessed as recovery of 1-alpha,25(OH)2D3-induced TRAP-positive osteoclast like multinucleated cell formation at 20 uM after 6 days drug removal after 2 days relative to control.

Consider `COC(=O)CNC(=O)[C@]12CCC(C)(C)C[C@H]1C1=CC[C@@H]3[C@@]4(C)Cc5c([nH]c6ccc(Cl)cc56)C(C)(C)[C@@H]4CC[C@@]3(C)[C@]1(C)CC2`, for which the Activity in experiment [1] is 66.6%; in experiment [2], 0%. Consider `COC(=O)[C@H](Cc1ccccc1)NC(=O)[C@]12CCC(C)(C)C[C@H]1C1=CC[C@@H]3[C@@]4(C)CCC(=O)C(C)(C)[C@@H]4CC[C@@]3(C)[C@]1(C)CC2`, for which the values for the Activity in experiment [3] and in experiment [2] were 99.1% and 82.3%, respectively. On to `CC1(C)CC[C@]2(C(=O)NCC(=O)O)CC[C@]3(C)C(=CC[C@@H]4[C@@]5(C)Cc6nccnc6C(C)(C)[C@@H]5CC[C@]43C)[C@@H]2C1`, for which the Activity in experiment [2] came out at 85.1%. The same measure, in the same setting: in the case of `CC1(C)CC[C@]2(C(=O)N[C@@H](Cc3ccccc3)C(=O)O)CC[C@]3(C)C(=CC[C@@H]4[C@@]5(C)Cc6nc7ccccc7nc6C(C)(C)[C@@H]5CC[C@]43C)[C@@H]2C1` it was 75.4%; in that of `C[C@H](NC(=O)[C@]12CCC(C)(C)C[C@H]1C1=CC[C@@H]3[C@@]4(C)CCC(=O)C(C)(C)[C@@H]4CC[C@@]3(C)[C@]1(C)CC2)C(=O)O`, 100%; in that of `CC(C)C[C@H](NC(=O)[C@]12CCC(C)(C)C[C@H]1C1=CC[C@@H]3[C@@]4(C)CCC(=O)C(C)(C)[C@@H]4CC[C@@]3(C)[C@]1(C)CC2)C(=O)O`, 100.6%. The same measure, in the same setting: with `CC[C@H](C)[C@H](NC(=O)[C@]12CCC(C)(C)C[C@H]1C1=CC[C@@H]3[C@@]4(C)Cc5c([nH]c6ccccc56)C(C)(C)[C@@H]4CC[C@@]3(C)[C@]1(C)CC2)C(=O)O` the figure was 84.4%. Take `COC(=O)[C@H](C)NC(=O)[C@]12CCC(C)(C)C[C@H]1C1=CC[C@@H]3[C@@]4(C)Cc5c([nH]c6ccc(Cl)cc56)C(C)(C)[C@@H]4CC[C@@]3(C)[C@]1(C)CC2`: the results for the Activity in experiment [1] and in experiment [2] were 79.9% and 10.1%, respectively. For `C[C@H](NC(=O)[C@]12CCC(C)(C)C[C@H]1C1=CC[C@@H]3[C@@]4(C)Cc5nc6ccccc6nc5C(C)(C)[C@@H]4CC[C@@]3(C)[C@]1(C)CC2)C(=O)O`, the Activity in experiment [2] amounted to 96.5%. For the compound `COC(=O)[C@H](CC(C)C)NC(=O)[C@]12CCC(C)(C)C[C@H]1C1=CC[C@@H]3[C@@]4(C)CCC(=O)C(C)(C)[C@@H]4CC[C@@]3(C)[C@]1(C)CC2`, the results for the Activity in experiment [3] and in experiment [2] were 100.2% and 92.9%, respectively.

On to `CC[C@H](C)[C@H](NC(=O)[C@]12CCC(C)(C)C[C@H]1C1=CC[C@@H]3[C@@]4(C)Cc5c([nH]c6ccccc56)C(C)(C)[C@@H]4CC[C@@]3(C)[C@]1(C)CC2)C(=O)OC`, for which the Activity in experiment [2] is recorded as 98.4%. Same read-out and setting: in the case of `CC[C@H](C)[C@H](NC(=O)[C@]12CCC(C)(C)C[C@H]1C1=CC[C@@H]3[C@@]4(C)Cc5c([nH]c6ccc(Cl)cc56)C(C)(C)[C@@H]4CC[C@@]3(C)[C@]1(C)CC2)C(=O)OC` it was 82.4%. As for `CC(C)[C@H](NC(=O)[C@]12CCC(C)(C)C[C@H]1C1=CC[C@@H]3[C@@]4(C)Cc5c([nH]c6ccccc56)C(C)(C)[C@@H]4CC[C@@]3(C)[C@]1(C)CC2)C(=O)O`, the Activity is given as 70.8% in experiment [1] and 6.1% in experiment [2].

Turning to `CC1(C)CC[C@]2(C(=O)O)CC[C@]3(C)C(=CC[C@@H]4[C@@]5(C)Cc6nc7ccccc7nc6C(C)(C)[C@@H]5CC[C@]43C)[C@@H]2C1`, the Activity came to 72.7% in experiment [1], 92.6% in experiment [3] and 0% in experiment [2]. `CC1(C)CC[C@]2(C(=O)O)CC[C@]3(C)C(=CC[C@@H]4[C@@]5(C)Cc6c([nH]c7ccc(C(=O)O)cc67)C(C)(C)[C@@H]5CC[C@]43C)[C@@H]2C1`: the Activity in experiment [1] was determined as 77.2%; in experiment [3], 97.8%; in experiment [2], 0%. Regarding `CC1(C)CC[C@]2(C(=O)O)CC[C@]3(C)C(=CC[C@@H]4[C@@]5(C)Cc6nc7cc([N+](=O)[O-])ccc7nc6C(C)(C)[C@@H]5CC[C@]43C)[C@@H]2C1`, the Activity came to 88.7% in experiment [1] and 24.1% in experiment [2]. Turning to `CC1(C)CC[C@]2(C(=O)N[C@@H](Cc3ccccc3)C(=O)O)CC[C@]3(C)C(=CC[C@@H]4[C@@]5(C)CCC(=O)C(C)(C)[C@@H]5CC[C@]43C)[C@@H]2C1`, the Activity in experiment [2] was 80.7%. On the same count and under the same terms, in the case of `C[C@H](NC(=O)[C@]12CCC(C)(C)C[C@H]1C1=CC[C@@H]3[C@@]4(C)Cc5nccnc5C(C)(C)[C@@H]4CC[C@@]3(C)[C@]1(C)CC2)C(=O)O` it was 76.5%. `COC(=O)[C@H](C)NC(=O)[C@]12CCC(C)(C)C[C@H]1C1=CC[C@@H]3[C@@]4(C)CCC(=O)C(C)(C)[C@@H]4CC[C@@]3(C)[C@]1(C)CC2`: the results for the Activity in experiment [1] and in experiment [2] were 68.7% and 29.3%, respectively. For `CC[C@H](C)[C@H](NC(=O)[C@]12CCC(C)(C)C[C@H]1C1=CC[C@@H]3[C@@]4(C)Cc5nc6ccccc6nc5C(C)(C)[C@@H]4CC[C@@]3(C)[C@]1(C)CC2)C(=O)OC`, the Activity in experiment [2] was determined as 78.5%. As for `CC1(C)CC[C@]2(C(=O)O)CC[C@]3(C)C(=CC[C@@H]4[C@@]5(C)Cc6c([nH]c7ccccc67)C(C)(C)[C@@H]5CC[C@]43C)[C@@H]2C1`, the Activity in experiment [1] is 94.6%; in experiment [2], 51.1%. Regarding `COC(=O)[C@@H](NC(=O)[C@]12CCC(C)(C)C[C@H]1C1=CC[C@@H]3[C@@]4(C)CCC(=O)C(C)(C)[C@@H]4CC[C@@]3(C)[C@]1(C)CC2)C(C)C`, in experiment [2], the Activity came to 100.6%. Still for that read-out and setting: in the case of `CC[C@H](C)[C@H](NC(=O)[C@]12CCC(C)(C)C[C@H]1C1=CC[C@@H]3[C@@]4(C)CCC(=O)C(C)(C)[C@@H]4CC[C@@]3(C)[C@]1(C)CC2)C(=O)O` it was 100.3%.

Regarding `COC(=O)[C@H](CC(C)C)NC(=O)[C@]12CCC(C)(C)C[C@H]1C1=CC[C@@H]3[C@@]4(C)Cc5c([nH]c6ccc(Cl)cc56)C(C)(C)[C@@H]4CC[C@@]3(C)[C@]1(C)CC2`, the Activity in experiment [2] is 86%. Turning to `CC[C@H](C)[C@H](NC(=O)[C@]12CCC(C)(C)C[C@H]1C1=CC[C@@H]3[C@@]4(C)CCC(=O)C(C)(C)[C@@H]4CC[C@@]3(C)[C@]1(C)CC2)C(=O)OC`, the Activity in experiment [1] amounted to 94%; in experiment [2] it was 1.4%. Consider `COC(=O)[C@@H](NC(=O)[C@]12CCC(C)(C)C[C@H]1C1=CC[C@@H]3[C@@]4(C)Cc5c([nH]c6ccccc56)C(C)(C)[C@@H]4CC[C@@]3(C)[C@]1(C)CC2)C(C)C`, for which the Activity in experiment [2] is recorded as 99%. Take `CC(C)[C@H](NC(=O)[C@]12CCC(C)(C)C[C@H]1C1=CC[C@@H]3[C@@]4(C)Cc5nccnc5C(C)(C)[C@@H]4CC[C@@]3(C)[C@]1(C)CC2)C(=O)O`: the Activity in experiment [2] was 83.5%. Consider `CC1(C)CC[C@]2(C(=O)NCC(=O)O)CC[C@]3(C)C(=CC[C@@H]4[C@@]5(C)Cc6c([nH]c7ccccc67)C(C)(C)[C@@H]5CC[C@]43C)[C@@H]2C1`, for which the Activity in experiment [1] turned out to be 95.2%; in experiment [2] it was 9%. `CC1(C)CC[C@]2(C(=O)N[C@@H](Cc3ccccc3)C(=O)O)CC[C@]3(C)C(=CC[C@@H]4[C@@]5(C)Cc6nccnc6C(C)(C)[C@@H]5CC[C@]43C)[C@@H]2C1`: the Activity in experiment [2] came out at 89.4%. On the same count and under the same terms, in the case of `CC1(C)CC[C@]2(C(=O)N[C@@H](Cc3ccccc3)C(=O)O)CC[C@]3(C)C(=CC[C@@H]4[C@@]5(C)Cc6c([nH]c7ccccc67)C(C)(C)[C@@H]5CC[C@]43C)[C@@H]2C1` it was 58%. In the case of `C[C@H](NC(=O)[C@]12CCC(C)(C)C[C@H]1C1=CC[C@@H]3[C@@]4(C)Cc5c([nH]c6ccccc56)C(C)(C)[C@@H]4CC[C@@]3(C)[C@]1(C)CC2)C(=O)O`, the Activity was determined as 90.2% in experiment [1] and 21% in experiment [2]. For `COC(=O)[C@@H](NC(=O)[C@]12CCC(C)(C)C[C@H]1C1=CC[C@@H]3[C@@]4(C)Cc5c([nH]c6ccc(Cl)cc56)C(C)(C)[C@@H]4CC[C@@]3(C)[C@]1(C)CC2)C(C)C` the same measures were 90.8% and 21.1%. With `CC(C)[C@H](NC(=O)[C@]12CCC(C)(C)C[C@H]1C1=CC[C@@H]3[C@@]4(C)CCC(=O)C(C)(C)[C@@H]4CC[C@@]3(C)[C@]1(C)CC2)C(=O)O`, the Activity in experiment [2] is reported as 99.8%. `COC(=O)CNC(=O)[C@]12CCC(C)(C)C[C@H]1C1=CC[C@@H]3[C@@]4(C)Cc5nccnc5C(C)(C)[C@@H]4CC[C@@]3(C)[C@]1(C)CC2`: the results for the Activity in experiment [1] and in experiment [2] were 93.5% and 41.1%, respectively. Take `COC(=O)[C@H](CC(C)C)NC(=O)[C@]12CCC(C)(C)C[C@H]1C1=CC[C@@H]3[C@@]4(C)Cc5c([nH]c6ccccc56)C(C)(C)[C@@H]4CC[C@@]3(C)[C@]1(C)CC2`: in experiment [2], the Activity stood at 96.8%. Turning to `CC1(C)CC[C@]2(C(=O)NCC(=O)O)CC[C@]3(C)C(=CC[C@@H]4[C@@]5(C)Cc6nc7ccccc7nc6C(C)(C)[C@@H]5CC[C@]43C)[C@@H]2C1`, in experiment [2], the Activity worked out at 91.9%. Take `CC1(C)CC[C@]2(C(=O)O)CC[C@]3(C)C(=CC[C@@H]4[C@@]5(C)Cc6c([nH]c7ccc([N+](=O)[O-])cc67)C(C)(C)[C@@H]5CC[C@]43C)[C@@H]2C1`: the Activity in experiment [1] was 83%; in experiment [3] it was 38.6%; in experiment [2], 0%. With `CC1(C)CC[C@]2(C(=O)NCC(=O)O)CC[C@]3(C)C(=CC[C@@H]4[C@@]5(C)CCC(=O)C(C)(C)[C@@H]5CC[C@]43C)[C@@H]2C1`, the Activity in experiment [2] amounted to 103%.

Consider `CC1(C)CC[C@]2(C(=O)O)CC[C@]3(C)C(=CC[C@@H]4[C@@]5(C)CCC(=O)C(C)(C)[C@@H]5CC[C@]43C)[C@@H]2C1` [OLEANONIC ACID], for which the Activity in experiment [1] is listed as 79.2%; in experiment [2] it was 1.4%.
